Experimental data: US20250236608A1, “EGFR INHIBITORS” (Blueprint Medicines Corporation, priority 2022, published 2025)

Columns and labels:
EGFR mutant NSCLC = conditions: cited from earlier work; for objective response rate (ORR): EGFR M+ NSCLC patients treated first line (1 L)
EGFR L858R = EGFR L858R (Homo sapiens (Human), UniProt P00533, L858R); assay: Biochemical EGFR inhibition assay, EGFR L858R; conditions: Caliper mobility shift; 1.0 mM ATP or ATP Km; read-out: Enz EGFR_L858R IC50
EGFR (d746-750) = EGFR (d746-750) (Homo sapiens (Human), UniProt P00533, DEL746-750); assay: Biochemical EGFR inhibition assay, EGFR (d746-750); conditions: Caliper mobility shift; 1.0 mM ATP or ATP Km; read-out: Enz EGFR_Exon19-del746-750 IC50
[1] = molecular target: pEGFR (Tyr1068) in PC-9 cells (Ex19Del) (Homo sapiens (Human), UniProt P00533, DEL746-750); assay: PC-9 pEGFR AlphaLISA assay; format: cell-based; conditions: 4 hours incubation, p-EGFR (Tyr1068) AlphaLISA, read-out: Ext pEGFR_PC-9 Ex19Del IC50
How it was run: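 First, cells settled overnight in 10% FBS medium. Second, a 10-point, 4-fold series of test agents was applied for 4 h at 37° C. Third, lysates were probed with AlphaLISA acceptor and donor beads, incubated overnight in the dark. Last, IC50 was taken from the dose-response.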

Sequence of pEGFR (Tyr1068) in PC-9 cells (Ex19Del) (P00533 other isoform, or with tags, fused parts or gaps del 746-750): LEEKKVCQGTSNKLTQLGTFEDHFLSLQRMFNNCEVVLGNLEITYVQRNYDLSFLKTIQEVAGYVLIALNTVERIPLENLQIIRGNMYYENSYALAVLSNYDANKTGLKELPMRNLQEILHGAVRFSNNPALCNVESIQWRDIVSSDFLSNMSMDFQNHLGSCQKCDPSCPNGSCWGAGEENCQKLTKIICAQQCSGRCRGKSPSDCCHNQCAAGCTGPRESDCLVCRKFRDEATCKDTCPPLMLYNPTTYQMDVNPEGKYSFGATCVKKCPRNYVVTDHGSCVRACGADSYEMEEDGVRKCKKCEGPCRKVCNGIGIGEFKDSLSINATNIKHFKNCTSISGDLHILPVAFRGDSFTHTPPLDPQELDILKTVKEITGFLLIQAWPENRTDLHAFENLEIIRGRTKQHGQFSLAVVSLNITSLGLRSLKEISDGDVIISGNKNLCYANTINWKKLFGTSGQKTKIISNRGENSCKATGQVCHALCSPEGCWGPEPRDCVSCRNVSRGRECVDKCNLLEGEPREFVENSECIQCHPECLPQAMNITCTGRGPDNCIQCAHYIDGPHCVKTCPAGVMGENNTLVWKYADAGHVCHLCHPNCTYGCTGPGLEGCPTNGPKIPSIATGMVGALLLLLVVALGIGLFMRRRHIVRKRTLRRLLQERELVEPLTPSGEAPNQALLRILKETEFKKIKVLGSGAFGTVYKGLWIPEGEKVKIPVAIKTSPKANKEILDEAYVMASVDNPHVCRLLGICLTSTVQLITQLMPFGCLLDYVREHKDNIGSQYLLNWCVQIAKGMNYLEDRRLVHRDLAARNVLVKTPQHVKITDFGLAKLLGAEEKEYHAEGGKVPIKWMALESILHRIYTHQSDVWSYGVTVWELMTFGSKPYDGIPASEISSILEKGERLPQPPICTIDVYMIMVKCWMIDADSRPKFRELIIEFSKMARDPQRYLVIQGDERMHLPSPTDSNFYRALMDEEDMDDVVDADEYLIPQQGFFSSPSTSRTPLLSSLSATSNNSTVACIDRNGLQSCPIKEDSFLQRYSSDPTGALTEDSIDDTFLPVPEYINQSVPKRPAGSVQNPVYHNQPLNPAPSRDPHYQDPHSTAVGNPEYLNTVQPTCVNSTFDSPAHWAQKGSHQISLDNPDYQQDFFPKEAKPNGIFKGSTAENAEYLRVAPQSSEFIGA
Sequence of EGFR L858R (P00533 25-1210 L858R): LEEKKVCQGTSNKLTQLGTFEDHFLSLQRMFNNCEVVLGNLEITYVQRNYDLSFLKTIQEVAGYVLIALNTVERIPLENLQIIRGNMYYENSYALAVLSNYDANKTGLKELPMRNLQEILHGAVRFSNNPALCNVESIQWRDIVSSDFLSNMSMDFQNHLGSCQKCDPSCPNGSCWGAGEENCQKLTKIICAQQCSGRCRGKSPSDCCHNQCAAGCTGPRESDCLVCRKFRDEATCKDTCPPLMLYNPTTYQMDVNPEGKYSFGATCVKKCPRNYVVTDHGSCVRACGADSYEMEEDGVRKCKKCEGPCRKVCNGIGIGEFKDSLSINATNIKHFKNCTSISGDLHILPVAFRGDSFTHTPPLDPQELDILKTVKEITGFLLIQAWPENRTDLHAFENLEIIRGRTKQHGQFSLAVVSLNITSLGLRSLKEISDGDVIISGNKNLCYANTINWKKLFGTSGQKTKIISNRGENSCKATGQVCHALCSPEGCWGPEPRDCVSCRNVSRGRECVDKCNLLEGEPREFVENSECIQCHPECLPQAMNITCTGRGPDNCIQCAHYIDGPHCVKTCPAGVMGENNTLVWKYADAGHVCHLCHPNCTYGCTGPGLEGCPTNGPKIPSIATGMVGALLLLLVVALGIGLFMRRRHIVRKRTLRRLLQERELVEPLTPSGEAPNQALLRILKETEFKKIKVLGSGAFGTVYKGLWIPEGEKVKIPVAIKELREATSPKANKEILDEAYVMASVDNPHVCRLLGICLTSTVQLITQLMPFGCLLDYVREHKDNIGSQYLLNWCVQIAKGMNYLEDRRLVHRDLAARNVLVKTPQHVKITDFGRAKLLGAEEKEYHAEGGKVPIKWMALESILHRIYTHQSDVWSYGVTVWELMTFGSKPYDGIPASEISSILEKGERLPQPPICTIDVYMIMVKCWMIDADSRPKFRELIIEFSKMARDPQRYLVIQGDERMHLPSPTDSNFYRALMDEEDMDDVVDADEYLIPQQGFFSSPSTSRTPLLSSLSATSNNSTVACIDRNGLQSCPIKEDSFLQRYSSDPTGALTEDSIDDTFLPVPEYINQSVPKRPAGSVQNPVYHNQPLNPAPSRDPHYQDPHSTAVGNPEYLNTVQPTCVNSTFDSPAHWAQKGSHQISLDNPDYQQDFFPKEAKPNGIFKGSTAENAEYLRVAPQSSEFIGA
Sequence of EGFR (d746-750) (P00533 other isoform, or with tags, fused parts or gaps del 1-694/del 746-750 limits assumed): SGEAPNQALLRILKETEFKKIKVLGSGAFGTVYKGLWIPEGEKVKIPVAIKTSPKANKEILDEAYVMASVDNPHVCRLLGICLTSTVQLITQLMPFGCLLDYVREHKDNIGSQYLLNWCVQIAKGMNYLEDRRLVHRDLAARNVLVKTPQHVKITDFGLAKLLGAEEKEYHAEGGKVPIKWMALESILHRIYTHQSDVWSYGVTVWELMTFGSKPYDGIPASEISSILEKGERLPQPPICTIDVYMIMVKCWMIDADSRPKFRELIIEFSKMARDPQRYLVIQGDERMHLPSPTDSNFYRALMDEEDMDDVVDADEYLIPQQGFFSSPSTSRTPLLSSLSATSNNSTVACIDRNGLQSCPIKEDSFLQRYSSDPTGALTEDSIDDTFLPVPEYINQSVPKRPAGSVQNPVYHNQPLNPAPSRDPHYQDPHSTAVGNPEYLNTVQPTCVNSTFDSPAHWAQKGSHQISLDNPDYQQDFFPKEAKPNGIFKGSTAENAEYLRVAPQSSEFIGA

| IC50 (EGFR L858R) [nM] | IC50 (EGFR (d746-750)) [nM] | IC50 [1] [nM] | Compound | objective response rate (ORR) (EGFR mutant NSCLC) | progression-free survival (PFS) (EGFR mutant NSCLC; first line, NSCLC harboring del 19 and L858R mutations) [mo] |
| --- | --- | --- | --- | --- | --- |
|  |  |  | C=CC(=O)Nc1cc(Nc2nccc(-c3cn(C)c4ccccc34)n2)c(OC)cc1N(C)CCN(C)C [osimertinib] | 60-85% | 18.9 |
|  |  |  | C#Cc1cccc(Nc2ncnc3cc(OCCOC)c(OCCOC)cc23)c1 [erlotinib] | 60-85% |  |
| 2 | 1.6 | 1.3 | COc1cc2ncnc(-c3cn(CC(F)F)nc3-c3ccccc3)c2cc1NC(=O)[C@@]12COC[C@@H]1C2 [Example 276, (1R,5R)—N-(4-(1-(2,2-difluoroethyl)-3-phenyl-1H-pyrazol-4-yl)-7-methoxyquinazolin-6-yl)-3-oxabicyclo[3.1.0]hexane-1-carboxamide] |  |  |
| 3.5 | 1.6 | 4.3 | COc1cc2ncnc(-c3cn(C)nc3-c3ccccc3)c2cc1NC(=O)[C@@H]1C[C@H]1C(F)(F)F [Example 286, (1R,2R)—N-(7-methoxy-4-(1-methyl-3-phenyl-1H-pyrazol-4-yl)quinazolin-6-yl)-2-(trifluoromethyl)cyclopropane-1-carboxamide] |  |  |
| 3.3 | 1.6 | 3.9 | COc1cc2ncnc(-c3cn(C)nc3-c3ccccc3)c2cc1NC(=O)c1ccc(C)nc1 [Example 323, N-(7-methoxy-4-(1-methyl-3-phenyl-1H-pyrazol-4-yl)quinazolin-6-yl)-6-methylnicotinamide] |  |  |
| 2 | 0.7 | 2.1 | COc1cc2ncnc(-c3cn(C)nc3-c3ccccc3)c2nc1NC(=O)c1cnn(C(F)(F)F)c1C [Example 427, N-(7-methoxy-4-(1-methyl-3-phenyl-1H-pyrazol-4-yl)pyrido[3,2-d]pyrimidin-6-yl)-5-methyl-1-(trifluoromethyl)-1H-pyrazole-4-carboxamide] |  |  |
| 1 | 0.6 | 1 | COC(=O)Nc1cc2c(-c3cn(C)nc3-c3ccccc3)ncnc2cc1OC [Example 157, methyl (7-methoxy-4-(1-methyl-3-phenyl-1H-pyrazol-4-yl)quinazolin-6-yl)carbamate] |  |  |
| 3.6 | 2.5 | 12.5 | COc1cc2ncnc(-c3cn(C)nc3-c3ccccc3)c2cc1C(O)C1CC1 (stereo not drawn) [Example 128, cyclopropyl (7-methoxy-4-(1-methyl-3-phenyl-1H-pyrazol-4-yl)quinazolin-6-yl)methanol] |  |  |
